Several values for one entry are separate records, joined by “and”; a condition that tells them apart may be missing. Identical values can stand only once. Inconclusive results and toxic doses are left out. How the source made its calls: active means survival T/C of 150% or more; inactive means T/C below 125% in these data.
Tested on: CD2F1 mice, L1210 leukemia ip, survival T/C
Test: NCI In Vivo Anticancer Drug Screen. Data for tumor model L1210 Leukemia (intraperitoneal) in CD2F1 (CDF1) mice
Conditions: higher = longer survival
How it was run: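 Compound-dosed mice with transplantable tumor versus matched vehicle controls; endpoint ratio T/C reported.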

[1] = endpoint: mean survival time, dose: 100.0 mg/kg/injection, schedule: Q04DX003 (ip), vehicle: saline
[2] = endpoint: mean survival time, dose: 100.0 mg/kg/injection, schedule: Q01DX009 (ip), vehicle: saline with Tween-80
[3] = endpoint: mean survival time, dose: 100.0 mg/kg/injection, schedule: Q04DX003 (ip), vehicle: saline with Tween-80
[4] = endpoint: mean survival time, dose: 200.0 mg/kg/injection, schedule: Q01DX009 (ip), vehicle: saline with Tween-80
[5] = endpoint: mean survival time, dose: 200.0 mg/kg/injection, schedule: Q04DX003 (ip), vehicle: saline with Tween-80
[6] = endpoint: mean survival time, dose: 400.0 mg/kg/injection, schedule: Q01DX009 (ip), vehicle: saline with Tween-80
[7] = endpoint: mean survival time, dose: 400.0 mg/kg/injection, schedule: Q04DX003 (ip), vehicle: saline with Tween-80
[8] = endpoint: mean survival time, dose: 50.0 mg/kg/injection, schedule: Q01DX009 (ip), vehicle: Klucel (hydroxypropylcellulose) (HPC)
[9] = endpoint: mean survival time, dose: 100.0 mg/kg/injection, schedule: Q01DX009 (ip), vehicle: Klucel (hydroxypropylcellulose) (HPC)
[10] = endpoint: mean survival time, dose: 100.0 mg/kg/injection, schedule: Q01DX001 (ip), vehicle: Klucel (hydroxypropylcellulose) (HPC)
[11] = endpoint: mean survival time, dose: 25.0 mg/kg/injection, schedule: Q04DX002 (ip), vehicle: saline with Tween-80
[12] = endpoint: mean survival time, dose: 50.0 mg/kg/injection, schedule: Q01DX009 (ip), vehicle: saline with Tween-80
[13] = endpoint: mean survival time, dose: 12.5 mg/kg/injection, schedule: Q01DX009 (ip), vehicle: saline with Tween-80

Measured: T/C

CCS(=O)(=O)/C=C(\C#Cc1ccccc1)c1ccccc1
inactive: endpoint: mean survival time, dose: 50.0 mg/kg/injection, schedule: Q01DX009 (ip), vehicle: saline 90 % of control | endpoint: mean survival time, dose: 100.0 mg/kg/injection, schedule: Q01DX009 (ip), vehicle: saline 91 % of control | [1] 102 % of control | endpoint: mean survival time, dose: 200.0 mg/kg/injection, schedule: Q01DX009 (ip), vehicle: saline 91 % of control | endpoint: mean survival time, dose: 200.0 mg/kg/injection, schedule: Q04DX003 (ip), vehicle: saline 102 % of control | endpoint: mean survival time, dose: 400.0 mg/kg/injection, schedule: Q04DX003 (ip), vehicle: saline 98 % of control

C#CCN(CC#C)C(=O)CCCCCCCCC=C
inactive: [2] 90 % of control | [3] 107 % of control | [4] 93 % of control | [5] 92 % of control | [6] 93 % of control | [7] 98 % of control

c1ccc([Si](c2ccccc2)(c2cccs2)c2cccs2)cc1
inactive: [3] 102 % of control | [5] 106 % of control | [7] 114 % of control

CC=C1C=C(C(C)(C)C)C(=O)C(C(C)(C)C)=C1
inactive: endpoint: mean survival time, dose: 25.0 mg/kg/injection, schedule: Q01DX009 (ip), vehicle: Klucel (hydroxypropylcellulose) (HPC) 90 % of control | [8] 102 % of control | [9] 98 % of control

COC(=O)N/N=C/Cc1ccccc1
inactive: [2] 93 % of control

Cc1cc(Br)cc(Br)c1OCC(=O)O
inactive: [8] 96 % of control | [9] 93 % of control | endpoint: mean survival time, dose: 200.0 mg/kg/injection, schedule: Q01DX009 (ip), vehicle: Klucel (hydroxypropylcellulose) (HPC) 96 % of control

[Au].[NH-]CC[NH-].[NH-]CC[NH-]
inactive: endpoint: mean survival time, dose: 6.25 mg/kg/injection, schedule: Q01DX001 (ip), vehicle: water 89 % of control | endpoint: mean survival time, dose: 6.25 mg/kg/injection, schedule: Q04DX003 (ip), vehicle: water 98 % of control | endpoint: mean survival time, dose: 12.5 mg/kg/injection, schedule: Q01DX001 (ip), vehicle: water 94 % of control | endpoint: mean survival time, dose: 12.5 mg/kg/injection, schedule: Q04DX003 (ip), vehicle: water 89 % of control | endpoint: mean survival time, dose: 25.0 mg/kg/injection, schedule: Q01DX001 (ip), vehicle: water 101 % of control

O=C(OCC(OC(=O)c1ccccc1)C1OC(OC(=O)c2ccccc2)C(OC(=O)c2ccccc2)C1OC(=O)c1ccccc1)c1ccccc1 (centres undefined)
inactive: [10] 88 % of control | endpoint: mean survival time, dose: 200.0 mg/kg/injection, schedule: Q01DX001 (ip), vehicle: Klucel (hydroxypropylcellulose) (HPC) 95 % of control | endpoint: mean survival time, dose: 400.0 mg/kg/injection, schedule: Q01DX001 (ip), vehicle: Klucel (hydroxypropylcellulose) (HPC) 95 % of control

Nc1[nH]c(=S)[nH]c(=O)c1N
inactive: endpoint: mean survival time, dose: 6.25 mg/kg/injection, schedule: Q04DX002 (ip), vehicle: saline with Tween-80 102 % of control | endpoint: mean survival time, dose: 12.5 mg/kg/injection, schedule: Q04DX002 (ip), vehicle: saline with Tween-80 102 % of control | [11] 102 % of control

CCCCOC(=O)C(C(=O)OCCCC)(C(=O)OCCCC)C(C(=O)OCCCC)(C(=O)OCCCC)C(=O)OCCCC
inactive: endpoint: mean survival time, dose: 100.0 mg/kg/injection, schedule: Q01DX001 (ip), vehicle: saline 90 % of control | endpoint: mean survival time, dose: 400.0 mg/kg/injection, schedule: Q01DX001 (ip), vehicle: saline 96 % of control

CCCC(N)C(=O)O (centres undefined)
inactive: [12] 106 % of control | [2] 98 % of control | [4] 104 % of control

CCCCCOC(CN)C(Cl)(Cl)Cl (centres undefined)
inactive: [13] 101 % of control | endpoint: mean survival time, dose: 25.0 mg/kg/injection, schedule: Q01DX009 (ip), vehicle: saline with Tween-80 96 % of control | [12] 95 % of control | [2] 98 % of control

CS(C)(O)NC(N)=O
inactive: endpoint: median survival time, dose: 25.0 mg/kg/injection, schedule: Q01DX009 (ip), vehicle: water 93 % of control | endpoint: median survival time, dose: 50.0 mg/kg/injection, schedule: Q01DX009 (ip), vehicle: water 103 % of control | endpoint: median survival time, dose: 100.0 mg/kg/injection, schedule: Q01DX009 (ip), vehicle: water 102 % of control | endpoint: median survival time, dose: 200.0 mg/kg/injection, schedule: Q01DX009 (ip), vehicle: water 91 % of control | endpoint: median survival time, dose: 400.0 mg/kg/injection, schedule: Q01DX009 (ip), vehicle: water 101 % of control

CC(C)C(C)/C=C\C(C)C1CCC2C3=CCC4CC(=O)CCC4(C)C3CCC21C (centres undefined)
inactive: endpoint: mean survival time, dose: 25.0 mg/kg/injection, schedule: Q01DX001 (ip), vehicle: Klucel (hydroxypropylcellulose) (HPC) 103 % of control | endpoint: mean survival time, dose: 50.0 mg/kg/injection, schedule: Q01DX001 (ip), vehicle: Klucel (hydroxypropylcellulose) (HPC) 96 % of control | [10] 103 % of control

CC1COC(Nc2cccc3c2CCCC3)=N1 (centres undefined)
inactive: endpoint: mean survival time, dose: 12.5 mg/kg/injection, schedule: Q04DX003 (ip), vehicle: saline with Tween-80 97 % of control | endpoint: mean survival time, dose: 25.0 mg/kg/injection, schedule: Q04DX003 (ip), vehicle: saline with Tween-80 97 % of control | endpoint: mean survival time, dose: 50.0 mg/kg/injection, schedule: Q04DX003 (ip), vehicle: saline with Tween-80 97 % of control

NC(=O)C1(Cl)CC2C=CC1C2 (centres undefined)
inactive: [1] 94 % of control

CC(C)C(=O)OC1(C(C)c2ccccc2)C(=O)NC(=O)NC1=O (centres undefined)
inactive: endpoint: mean survival time, dose: 6.25 mg/kg/injection, schedule: Q01DX009 (ip), vehicle: saline with Tween-80 92 % of control | [13] 97 % of control | [11] 91 % of control

O=S(=O)(/N=C1\C=CC=C\C1=N/S(=O)(=O)c1ccccc1)c1ccccc1
inactive: [2] 95 % of control | [4] 92 % of control | [6] 98 % of control

CC1(C)COC(=O)N1
inactive: endpoint: mean survival time, dose: 75.0 mg/kg/injection, schedule: Q01DX009 (ip), vehicle: saline with Tween-80 104 % of control | [1] 108 % of control | endpoint: mean survival time, dose: 150.0 mg/kg/injection, schedule: Q01DX009 (ip), vehicle: saline with Tween-80 101 % of control

CC(C)NCC(O)COc1cccc2ccccc12 (centres undefined)
inactive: endpoint: mean survival time, dose: 4.0 mg/kg/injection, schedule: Q01DX009 (ip), vehicle: Klucel (hydroxypropylcellulose) (HPC) 94 % of control and 98 % of control and 103 % of control | endpoint: mean survival time, dose: 8.0 mg/kg/injection, schedule: Q01DX009 (ip), vehicle: Klucel (hydroxypropylcellulose) (HPC) 94 % of control and 95 % of control and 98 % of control | endpoint: mean survival time, dose: 16.0 mg/kg/injection, schedule: Q01DX009 (ip), vehicle: Klucel (hydroxypropylcellulose) (HPC) 91 % of control and 96 % of control and 101 % of control | endpoint: mean survival time, dose: 32.0 mg/kg/injection, schedule: Q01DX009 (ip), vehicle: Klucel (hydroxypropylcellulose) (HPC) 87 % of control and 93 % of control and 96 % of control | endpoint: mean survival time, dose: 64.0 mg/kg/injection, schedule: Q01DX009 (ip), vehicle: Klucel (hydroxypropylcellulose) (HPC) 84 % of control and 102 % of control and 105 % of control | endpoint: mean survival time, dose: 128.0 mg/kg/injection, schedule: Q01DX009 (ip), vehicle: Klucel (hydroxypropylcellulose) (HPC) 120 % of control

CSc1nc(NC2OCC(O)C(O)C2O)cc(=O)n1C (centres undefined)
inactive: endpoint: median survival time, dose: 12.5 mg/kg/injection, schedule: Q01DX005 (ip), vehicle: saline 98 % of control | endpoint: median survival time, dose: 25.0 mg/kg/injection, schedule: Q01DX005 (ip), vehicle: saline 102 % of control | endpoint: median survival time, dose: 50.0 mg/kg/injection, schedule: Q01DX005 (ip), vehicle: saline 102 % of control | endpoint: median survival time, dose: 100.0 mg/kg/injection, schedule: Q01DX005 (ip), vehicle: saline 105 % of control | endpoint: median survival time, dose: 200.0 mg/kg/injection, schedule: Q01DX005 (ip), vehicle: saline 100 % of control

Reference: PubChem BioAssay AID256 (DTP/NCI, 2004)
